These compounds were tested on caterpillars of the army worm (Spodoptera frugiperda) (assay: Spodoptera frugiperda test (spray treatment) (Example D)). Conditions: 100 g/ha; sprayed maize leaf discs.
Format: in vivo
Method: Spodoptera Frugiperda Test (Spray Treatment)
(§1) • Solvents: 78 parts by weight of acetone • 1.5 parts by weight of dimethylformamide • Emulsifier: 0.5 part by weight of alkylaryl polyglycol ether
(§2) To produce a suitable preparation of active compound, 1 part by weight of active compound is mixed with the stated amounts of solvents and emulsifier, and the concentrate is diluted with emulsifier-containing water to the desired concentration.
Discs of maize leaves (Zea mays) are sprayed with a preparation of active compound of the desired concentration and, after they have dried, populated with caterpillars of the army worm (Spodoptera frugiperda).
After the desired period of time, the activity in % is determined. 100% means that all caterpillars have been killed; 0% means that none of the caterpillars have been killed.
Cc1ccc(-c2ccc(C(F)(F)F)cc2)cc1C1(Cl)C(=O)N2CCCCN2C1=O [Ex. I-1-22] was tested, and the “Kill rate in % after 7d” value was 100%.

Same assay, conditions: 500 g/ha; sprayed maize leaf discs
Cc1ccc(-c2ccc(Cl)cc2)cc1C1(Cl)C(=O)N2CCCCN2C1=O [Ex. I-1-6] was tested, and the “Kill rate in % after 7d” value was 100%. With Cc1ccc(-c2ccc(Cl)c(Cl)c2)cc1C1(Cl)C(=O)N2CCCCN2C1=O [Ex. I-1-15] the “Kill rate in % after 7d” value was 100%. For Cc1ccc(-c2ccc(F)c(Cl)c2)cc1C1(Cl)C(=O)N2CCCCN2C1=O [Ex. I-1-19], the “Kill rate in % after 7d” value was 100%. For Cc1ccc(-c2ccccc2Cl)cc1C1(Cl)C(=O)N2CCOCCN2C1=O [Ex. I-2-2], the “Kill rate in % after 7d” value was 100%. In the case of Cc1ccc(-c2cccc(Cl)c2)cc1C1(Cl)C(=O)N2CCOCCN2C1=O [Ex. I-2-3], the “Kill rate in % after 7d” value is reported as 100%. With Cc1ccc(-c2ccc(Cl)cc2)cc1C1(Cl)C(=O)N2CCOCCN2C1=O [Ex. I-2-4] the “Kill rate in % after 7d” value was 100%. With Cc1ccc(-c2cc(Cl)ccc2Cl)cc1C1(Cl)C(=O)N2CCOCCN2C1=O [Ex. I-2-13] the “Kill rate in % after 7d” value was 100%. Cc1ccc(-c2ccc(C(F)(F)F)cc2)cc1C1(Cl)C(=O)N2CCOCCN2C1=O [Ex. I-2-21] was tested, and the “Kill rate in % after 7d” value was 100%.

What follows are compounds tested on larvae of the mustard beetle (Phaedon cochleariae) (assay: Phaedon test (spray treatment) (Example C)). Conditions: 500 g/ha; sprayed Chinese cabbage discs.
Format: in vivo
Method: Phaedon Test (Spray Treatment)
as §1, §2
After the desired period of time, the activity in % is determined. 100% means that all beetle larvae have been killed; 0% means that none of the beetle larvae have been killed.
For Cc1ccc(-c2ccc(Cl)cc2)cc1C1(Cl)C(=O)N2CCCCN2C1=O [Ex. I-1-6], the “Kill rate in % after 7d” value was 100%. For Cc1cccc(-c2ccc(C)c(C3(Cl)C(=O)N4CCCCN4C3=O)c2)c1 [Ex. I-1-10], the “Kill rate in % after 7d” value was 100%. In the case of Cc1ccc(-c2ccc(C)c(C3(Cl)C(=O)N4CCCCN4C3=O)c2)cc1 [Ex. I-1-11], the “Kill rate in % after 7d” value is reported as 100%. For Cc1ccc(-c2cc(Cl)ccc2Cl)cc1C1(Cl)C(=O)N2CCCCN2C1=O [Ex. I-1-14], the “Kill rate in % after 7d” value was 100%. With Cc1ccc(-c2cc(F)ccc2F)cc1C1(Cl)C(=O)N2CCCCN2C1=O [Ex. I-1-18] the “Kill rate in % after 7d” value was 100%. Cc1ccc(-c2ccc(OC(F)(F)F)cc2)cc1C1(Cl)C(=O)N2CCCCN2C1=O [Ex. I-1-29] was tested, and the “Kill rate in % after 7d” value was 100%. In the case of Cc1ccc(-c2ccccc2)cc1C1(Cl)C(=O)N2CCOCCN2C1=O [Ex. I-2-1], the “Kill rate in % after 7d” value is reported as 100%. With Cc1ccc(-c2ccc(C)c(C3(Cl)C(=O)N4CCOCCN4C3=O)c2)cc1 [Ex. I-2-10] the “Kill rate in % after 7d” value was 100%. For Cc1ccc(-c2ccc(Cl)cc2Cl)cc1C1(Cl)C(=O)N2CCOCCN2C1=O [Ex. I-2-12], the “Kill rate in % after 7d” value was 100%. Cc1ccc(-c2ccc(Cl)c(Cl)c2)cc1C1(Cl)C(=O)N2CCOCCN2C1=O [Ex. I-2-14] was tested, and the “Kill rate in % after 7d” value was 100%. With Cc1ccc(-c2cc(Cl)cc(Cl)c2)cc1C1(Cl)C(=O)N2CCOCCN2C1=O [Ex. I-2-15] the “Kill rate in % after 7d” value was 100%. With Cc1ccc(-c2cc(F)ccc2F)cc1C1(Cl)C(=O)N2CCOCCN2C1=O [Ex. I-2-17] the “Kill rate in % after 7d” value was 100%. For Cc1ccc(-c2cccc(C(F)(F)F)c2)cc1C1(Cl)C(=O)N2CCOCCN2C1=O [Ex. I-2-20], the “Kill rate in % after 7d” value was 100%. Cc1ccc(-c2cccc([N+](=O)[O-])c2)cc1C1(Cl)C(=O)N2CCOCCN2C1=O [Ex. I-2-27] was tested, and the “Kill rate in % after 7d” value was 100%. For Cc1ccc(-c2ccc(Oc3ccc(Cl)cc3)cc2)cc1C1(Cl)C(=O)N2CCOCCN2C1=O [Ex. I-2-34], the “Kill rate in % after 7d” value was 100%.

These compounds were tested on greenhouse red spider mite (Tetranychus urticae) (assay: Tetranychus test (OP-resistance/spray treatment) (Example E)). Conditions: 100 g/ha; sprayed bean leaf discs.
Format: in vivo
Method: Tetranychus Test (OP-resistance/Spray Treatment)
as §1
To prepare a suitable preparation of active compound, 1 part by weight of active compound is mixed with the stated amounts of solvents and emulsifier, and the concentrate is diluted with emulsifier-containing water to the desired concentration.
Discs of bean leaves (Phaseolus vulgaris) which are infested by all stages of the greenhouse red spider mite (Tetranychus urticae) are sprayed with a preparation of active compound of the desired concentration.
After the desired period of time, the activity in % is determined. 100% means that all spider mites have been killed; 0% means that none of the spider mites have been killed.
In the case of COc1ccccc1-c1ccc(C)c(C2(Cl)C(=O)N3CCOCCN3C2=O)c1 [Ex. I-2-22], the “Kill rate in % after 5d” value is reported as 90%. In the case of Cc1ccc(-c2cccc([N+](=O)[O-])c2)cc1C1(Cl)C(=O)N2CCOCCN2C1=O [Ex. I-2-27], the “Kill rate in % after 5d” value is reported as 100%.

Same assay, conditions: 500 g/ha; sprayed bean leaf discs
For Cc1ccc(-c2ccccc2)cc1C1(Cl)C(=O)N2CCCCN2C1=O [Ex. I-1-3], the “Kill rate in % after 5d” value was 100%. Cc1cccc(-c2ccc(C)c(C3(Cl)C(=O)N4CCCCN4C3=O)c2)c1 [Ex. I-1-10] was tested, and the “Kill rate in % after 5d” value was 100%. Cc1ccc(-c2cccc(Cl)c2Cl)cc1C1(Cl)C(=O)N2CCCCN2C1=O [Ex. I-1-12] was tested, and the “Kill rate in % after 5d” value was 90%. In the case of Cc1ccc(-c2cc(Cl)ccc2Cl)cc1C1(Cl)C(=O)N2CCCCN2C1=O [Ex. I-1-14], the “Kill rate in % after 5d” value is reported as 100%. For Cc1ccc(-c2ccc(OC(F)(F)F)cc2)cc1C1(Cl)C(=O)N2CCCCN2C1=O [Ex. I-1-29], the “Kill rate in % after 5d” value was 100%. In the case of Cc1ccc(-c2ccccc2F)cc1C1(Cl)C(=O)N2CCOCCN2C1=O [Ex. I-2-5], the “Kill rate in % after 5d” value is reported as 90%. With Cc1cccc(-c2ccc(C)c(C3(Cl)C(=O)N4CCOCCN4C3=O)c2)c1 [Ex. I-2-9] the “Kill rate in % after 5d” value was 90%. With Cc1ccc(-c2ccccc2C(F)(F)F)cc1C1(Cl)C(=O)N2CCOCCN2C1=O [Ex. I-2-19] the “Kill rate in % after 5d” value was 90%. With Cc1ccc(-c2ccc(OC(F)(F)F)cc2)cc1C1(Cl)C(=O)N2CCOCCN2C1=O [Ex. I-2-28] the “Kill rate in % after 5d” value was 90%.

Reference: US7569517B2, “4-biphenyl-substituted pyrazolidin-3 5-diones pesticide agent and/or microbicide and/or herbicide” (Bayer CropScience AG, priority 2003, dated 2009)
